Here are results for 6 molecules from US20220170930A1, “METHOD FOR SCREENING COMPOUND FOR TREATING OR PREVENTING POLYQ-RELATED NEURODEGENERATIVE DISEASES” (FUDAN UNIVERSITY, priority 2019, published 2022).

Structures can show the parent of a compound that is named as a salt.

The test system of data set [1] is mHTT. As to the kind of experiment: HTRF mHTT level in HD patient immortalized fibroblasts. The note with it: for mHTT level: c-Raf inhibitors and KSP inhibitors at 100 nM; for mHTT levels, comparison of FIG. 9: concentrations below the micromolar level. For orientation: Time-resolved FRET reads energy transfer from a long-lived donor to a nearby acceptor.
For data set [2], the system named is Q25-GFP. Kind of data set: MST affinity with Q25-GFP.
The subject of data set [3] is mHTT. As to the kind of experiment: Intracerebroventricular injection, mHTT and wtHTT in cortices of HD mice. The format is in vivo, mouse. Conditions: mouse, in vivo. Here is the method:
Experimental animals: Hdh^Q140/Q7 mice (3 months old), 4 in each group.
Each test includes three repetitions for each sample, and the mean values was calculated (FIG. 16).

For data set [4], the target named is T1, MBP-ATXN3-Q28 (Homo sapiens, UniProt P54252, INS305QQQQQQQQQQQQQQQQQQ).
T1 construct: His8 with TEV protease cleavage site; made in house; host or cells: Escherichia coli Rosetta(DE3)pLsyS
T1 sequence (P54252 with tags, fused parts or gaps isoform P54252-4 with the stated changes): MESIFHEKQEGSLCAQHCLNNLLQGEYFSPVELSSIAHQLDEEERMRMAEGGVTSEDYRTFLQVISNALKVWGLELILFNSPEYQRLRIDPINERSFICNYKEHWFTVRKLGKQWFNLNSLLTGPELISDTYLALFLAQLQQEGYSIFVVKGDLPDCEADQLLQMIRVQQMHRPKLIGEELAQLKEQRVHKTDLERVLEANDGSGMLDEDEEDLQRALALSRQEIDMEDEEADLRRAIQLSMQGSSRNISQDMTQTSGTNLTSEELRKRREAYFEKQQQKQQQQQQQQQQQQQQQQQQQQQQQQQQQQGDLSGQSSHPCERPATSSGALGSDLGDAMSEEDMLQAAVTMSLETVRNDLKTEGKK
Kind of data set: MST affinity with MBP-ATXN3-Q28. The format is binding. On the procedure: Protein concentration was 500 nM.

Data set [5] deals with T2, mutant ATXN1 protein (His-ATXN1-Q92) (Homo sapiens, UniProt P54253, INS208QQQQQQQQQQQQQQQQQQQQQQQQQQQQQQQQQQQQQQQQQQQQQQQQQQQQQQQQQQQQQQQQQQQQQQQQQQQQQQQQ).
T2 construct: expressed in transfected cells; host or cells: HEK293T cells (ATCC, CRL-3216)
T2 sequence (P54253 with tags, fused parts or gaps with the stated changes): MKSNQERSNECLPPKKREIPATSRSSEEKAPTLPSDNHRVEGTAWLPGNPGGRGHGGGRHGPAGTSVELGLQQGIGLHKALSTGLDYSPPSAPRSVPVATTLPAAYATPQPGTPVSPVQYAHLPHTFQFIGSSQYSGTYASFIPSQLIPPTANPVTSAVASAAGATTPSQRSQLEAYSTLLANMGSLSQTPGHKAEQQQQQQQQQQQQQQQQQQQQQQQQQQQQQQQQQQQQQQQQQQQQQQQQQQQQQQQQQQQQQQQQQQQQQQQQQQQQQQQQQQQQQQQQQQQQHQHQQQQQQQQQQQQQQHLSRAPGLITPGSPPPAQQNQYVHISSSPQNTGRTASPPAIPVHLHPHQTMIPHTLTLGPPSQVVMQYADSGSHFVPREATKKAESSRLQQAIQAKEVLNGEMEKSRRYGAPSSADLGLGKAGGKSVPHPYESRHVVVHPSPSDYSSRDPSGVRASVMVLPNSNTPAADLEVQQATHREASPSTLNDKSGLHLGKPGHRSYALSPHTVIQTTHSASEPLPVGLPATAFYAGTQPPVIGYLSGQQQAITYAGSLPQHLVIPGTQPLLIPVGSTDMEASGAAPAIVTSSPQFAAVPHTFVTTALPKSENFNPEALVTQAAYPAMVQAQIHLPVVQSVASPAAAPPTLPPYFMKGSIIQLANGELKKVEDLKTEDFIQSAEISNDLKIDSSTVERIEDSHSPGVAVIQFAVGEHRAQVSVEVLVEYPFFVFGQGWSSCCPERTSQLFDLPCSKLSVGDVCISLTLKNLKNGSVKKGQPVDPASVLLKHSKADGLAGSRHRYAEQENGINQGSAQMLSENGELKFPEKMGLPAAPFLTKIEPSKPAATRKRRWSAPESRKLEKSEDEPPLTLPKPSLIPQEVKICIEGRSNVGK
As to the kind of experiment: HTRF mutant ATXN1 level in His-ATXN1-Q92-expressing cells. Conditions: 100 nM, 2 days, anti-His-Tb/MW1-D2. The format is cell-based.

The next data set has as its system GFP. Kind of data set: OI-RD affinity screening with GFP. The format is binding. The note with it: OI-RD difference images. Here is the method: (§1) To identify compound(s) that can selectively bind to proteins containing expanded polyglutamine, screening was conducted using a method similar to 1.1, except for that the target protein HTTexon1-Q72-MBP in step (1) of 1.1 was replaced with the polyQ-GFP protein prepared in 10.1, and the target protein HTTexon1-Q25-MBP in step (2) of 1.1 was replaced with GFP.

For data set [6], the target named is T3, mutant ATXN3 protein (ATXN3-Q74) (Homo sapiens, UniProt P54252, G306R/INS305QQQQQQQQQQQQQQQQQQQQQQQQQQQQQQQQQQQQQQQQQQQQQQQQQQQQQQQQQQQQQQQQ/V212M).
T3 construct: endogenous in cells; host or cells: SCA3 patient fibroblasts (Q74)
T3 sequence (P54252 with tags, fused parts or gaps isoform P54252-1 with the stated changes): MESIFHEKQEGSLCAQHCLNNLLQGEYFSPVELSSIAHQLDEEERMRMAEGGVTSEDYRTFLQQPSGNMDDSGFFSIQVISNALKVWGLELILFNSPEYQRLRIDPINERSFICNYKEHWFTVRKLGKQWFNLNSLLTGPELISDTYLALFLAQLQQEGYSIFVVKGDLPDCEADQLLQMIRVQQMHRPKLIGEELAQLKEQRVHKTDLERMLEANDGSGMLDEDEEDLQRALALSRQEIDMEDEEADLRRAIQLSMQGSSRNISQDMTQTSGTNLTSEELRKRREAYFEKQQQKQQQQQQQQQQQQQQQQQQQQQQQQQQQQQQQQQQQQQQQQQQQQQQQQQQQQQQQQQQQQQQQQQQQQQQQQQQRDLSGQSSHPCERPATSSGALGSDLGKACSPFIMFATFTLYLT
As to the kind of experiment: Western-blot mutant ATXN3 level in SCA3 patient fibroblasts. The class given is cell-based. The note with it: 100 nM (compound 4: 50 nM), 2 days. Here is the method:
(§2) Then the levels of mutant ATXN3 protein (ATXN3-Q74, SEQ ID NO: 2) and wild-type ATXN3 protein (ATXN3-Q27, SEQ ID NO: 7) were determined by Western-blots (FIG. 26). […] Therefore, the compound of the present invention can be used to treat SCA3.

A further data set deals with SQSTM1/p62. Kind of data set: SQSTM1/p62 level in mouse cortices after ip injection. The class given is in vivo. Conditions: HD mice. On the procedure:
Using a method similar to 6.2, Hdh^Q140/Q7 mice were administered with injections. A method similar to 7.1 was used to detect the effects of ip-injection of compounds on other known autophagy selective substrate proteins (SQSTM1/p62) in the cortical tissue of Hdh^Q140/Q7 mice.

In another data set the target is T4, His-ATXN1-Q92 (Homo sapiens, UniProt P54253, INS208QQQQQQQQQQQQQQQQQQQQQQQQQQQQQQQQQQQQQQQQQQQQQQQQQQQQQQQQQQQQQQQQQQQQQQQQQQQQQQQQ).
T4 construct: made in house; host or cells: HEK293T cells (ATCC, CRL-3216)
T4 sequence (P54253 with tags, fused parts or gaps with the stated changes): as the sequence (P54253 with tags, fused parts or gaps with the stated changes) above
As to the kind of experiment: OI-RD affinity screening with His-ATXN1-Q92. The format is binding. The note with it: OI-RD difference images. Here is the method: (1) PolyQ-ATXN1 cDNA (where polyQ is Q92) was synthesized de novo and subcloned into pcDNA vector. It transfected into HEK293T cells (ATCC, CRL-3216) to obtain cells expressing His-ATXN1-Q92 (SEQ ID NO: 3 with a His tag at the N-terminal).
(2) The His-ATXN1-Q92 expressed in (1) was purified to obtain ATXN1 with abnormally expanded polyQ.
To identify compound(s) that can bind to ATXN1 with abnormally expanded polyQ, screening was conducted using a method similar to step (1) of 1.1, except for that the target protein HTTexon1-Q72-MBP in step (1) of 1.1 was replaced with His-ATXN1-Q92.

Data set [7] relates to polyQ-GFP (Q72-GFP, Q25-GFP). Kind of data set: polyQ-GFP level in HEK293T cells by Incucyte fluorescence counting. The class given is cell-based. The note with it: Q72-GFP vs Q25-GFP expressing HEK293T cells, 100 nM compound 1, 100 nM compound 3 or 50 nM compound 4, 2 days. From the text: (1) PolyQ-GFP cDNA sequence (expressing Met-polyQ-GFP, wherein polyQ was Q72 or Q25) was synthesized de novo and subcloned into pcDNA vector. It was transfected into HEK293T cells (ATCC, CRL-3216) through forward transfection to obtain Q72-GFP expressing cells and Q25-GFP expressing cells, respectively. And the same method was used to obtain cells expressing Q53-GFP, cells expressing Q46-GFP, and cells expressing Q38-GFP.
The Q72-GFP expressing cells and Q25-GFP expressing cells obtained in step (1) of 10.1 were used. […] Then the level of polyQ-GFP was measured by Incucyte fluorescence counting (FIG. 25).

Data set [8] relates to proteins with expanded polyglutamine (polyQ-GFP). As to the kind of experiment: OI-RD affinity screening with polyQ-GFP proteins. The format is binding. The note with it: OI-RD difference images. On the procedure: as §1
The subject of data set [9] is Q25-GFP. As to the kind of experiment: OI-RD affinity screening with Q25-GFP. The note with it: OI-RD difference images. The class given is binding. The source says:
(1) PolyQ-GFP cDNA sequence (expressing Met-polyQ-GFP, wherein polyQ was Q72 or Q25) was synthesized de novo and subcloned into pcDNA vector. […] And the same method was used to obtain cells expressing Q53-GFP, cells expressing Q46-GFP, and cells expressing Q38-GFP.

In data set [10] the target is T1, MBP-ATXN3-Q28. Kind of data set: OI-RD affinity screening with MBP-ATXN3-Q28. The format is binding. The note with it: OI-RD difference images. On the procedure:
(§3) Screening was conducted using a method similar to 1.1, except for that the target protein HTTexon1-Q72-MBP in step (1) of 1.1 was replaced with MBP-ATXN3-Q68 and the target protein HTTexon1-Q25-MBP in step (2) of 1.1 was replaced with MBP-ATXN3-Q28, to obtain compounds that can selectively bind to ATXN3 with abnormally expanded polyQ (MBP-ATXN3-Q68).

Data set [11] has as its target T5, wild-type ATXN3 protein (ATXN3-Q27) (Homo sapiens, UniProt P54252, G306R/INS305QQQQQQQQQQQQQQQQQ/V212M).
T5 construct: endogenous in cells; host or cells: wild-type fibroblasts (Q27) and/or the normal allele in SCA3 patient fibroblasts
As to the kind of experiment: Western-blot wild-type ATXN3 level in fibroblasts. The format is cell-based. The note with it: 100 nM (compound 4: 50 nM), 2 days. On the procedure: as §2

A further data set in a line: in vivo. The note with it: mouse, ip, 0.5 mg/kg.
The next data set concerns the target MBP-ATXN3-Q68 (Homo sapiens, UniProt P54252, INS305QQQQQQQQQQQQQQQQQQQQQQQQQQQQQQQQQQQQQQQQQQQQQQQQQQQQQQQQQQ). Kind of data set: OI-RD affinity screening with MBP-ATXN3-Q68. Also on record: His8 with TEV protease cleavage site; made in house; host or cells: Escherichia coli Rosetta(DE3)pLsyS. The note with it: OI-RD difference images. The format is binding. On the procedure: as §3

Chain of MBP-ATXN3-Q68 (P54252 with tags, fused parts or gaps isoform P54252-4 with the stated changes): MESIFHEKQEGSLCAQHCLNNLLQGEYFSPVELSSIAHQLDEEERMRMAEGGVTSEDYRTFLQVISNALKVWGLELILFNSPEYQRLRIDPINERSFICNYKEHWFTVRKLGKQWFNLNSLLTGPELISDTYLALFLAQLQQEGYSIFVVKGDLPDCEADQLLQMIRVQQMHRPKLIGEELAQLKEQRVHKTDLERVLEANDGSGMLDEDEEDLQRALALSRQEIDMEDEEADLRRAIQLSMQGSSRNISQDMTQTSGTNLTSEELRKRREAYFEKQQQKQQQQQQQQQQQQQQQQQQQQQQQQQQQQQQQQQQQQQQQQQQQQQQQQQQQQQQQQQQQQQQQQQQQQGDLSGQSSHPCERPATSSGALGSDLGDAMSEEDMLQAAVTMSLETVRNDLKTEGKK
T5 sequence (P54252 with tags, fused parts or gaps isoform P54252-1 with the stated changes): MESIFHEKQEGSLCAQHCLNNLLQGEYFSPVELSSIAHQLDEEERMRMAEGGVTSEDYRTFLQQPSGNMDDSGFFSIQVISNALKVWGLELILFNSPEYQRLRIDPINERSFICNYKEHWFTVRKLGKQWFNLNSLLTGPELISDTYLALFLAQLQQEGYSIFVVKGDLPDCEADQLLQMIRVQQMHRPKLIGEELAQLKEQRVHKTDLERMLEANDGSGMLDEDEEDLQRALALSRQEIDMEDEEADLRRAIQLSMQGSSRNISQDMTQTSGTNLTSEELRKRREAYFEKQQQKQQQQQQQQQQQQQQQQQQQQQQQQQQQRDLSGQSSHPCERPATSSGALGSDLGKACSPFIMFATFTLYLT

In the case of `CC(C)Oc1ccc(C(=O)N[C@H](CNC(=O)CN(C)C)Cc2ccc(-c3cn4cccc([C@H](C)O)c4n3)cc2)cc1Cl` [GSK923295], the mHTT level entry in the data set with mHTT [1] is “No decrease in mHTT level was observed”.

As for `COc1ccc(Oc2cc(NCCC(F)(F)F)c3ncc(-c4ccc(C(=O)NC5CC5)c(C)c4)n3n2)c(F)c1F` [BAY1217389], in the data set with mHTT [1], the mHTT level entry was “No decrease in mHTT level was observed” and the “mHTT levels, comparison of FIG. 9” value was “did not reduce mHTT levels”.

On to `CCCS(=O)(=O)Nc1ccc(F)c(C(=O)c2c[nH]c3ncc(Cl)cc23)c1F` [PLX-4720], for which, in the data set on mHTT [1], the mHTT level result is “No decrease in mHTT level was observed” and the “mHTT levels, comparison of FIG. 9” value is “did not reduce mHTT levels”.

Turning to `CC(C)(C)c1nc(-c2cccc(NS(=O)(=O)c3c(F)cccc3F)c2F)c(-c2ccnc(N)n2)s1` [Dabrafenib], in the data set on mHTT [1], the mHTT level result is “No decrease in mHTT level was observed”.

Consider `CNC(=O)c1cc(Oc2ccc(NC(=O)Nc3ccc(Cl)c(C(F)(F)F)c3)cc2)ccn1` [Sorafenib Tosylate], for which the mHTT level result with mHTT [1] is “No decrease in mHTT level was observed”.

For `O=c1cc(-c2ccccc2)c2c(O)cc(O)cc2o1` [compound 4], the “binding affinity to Q25-GFP” value in the data set with Q25-GFP [2] is on record as “no binding affinity”. Further, in the data set with mHTT [3], the “mHTT level in cortices” value is “significantly reduced mHTT level”. For the same molecule, the “binding affinity with normal ATXN3 protein (MBP-ATXN3-Q28)” value at MBP-ATXN3-Q28 [4] is given as “no binding affinity”. For the same molecule, in data set [5], the “level of mutant ATXN1 protein (His-ATXN1-Q92)” value is “Decreased levels of mutant ATXN1 were observed”. Besides, the “binding to GFP” value with GFP is given as “did not bind”. Besides, in data set [6], the “mutant ATXN3 protein level” value is “A decrease in mutant ATXN3 protein level was observed”. Besides, the “level of SQSTM1/p62 in the cortices” value in the data set on SQSTM1/p62 is listed as “did not change”. The “binding to His-ATXN1-Q92” value on His-ATXN1-Q92 is “can bind”. For the same molecule, the “level of proteins containing expanded polyglutamine in cells (polyQ-GFP)” value in data set [7] is listed as “can selectively reduce the level”. In the data set on mHTT [1], the “mHTT levels, comparison of FIG. 9” value was “reduces mHTT levels”. Further, the “binding affinity to proteins with 38 or more glutamine repeats” value in [8] is “showed certain binding affinity”. In addition, the “binding to Q25-GFP” value in the data set with Q25-GFP [9] was “did not bind”. In addition, the “binding to MBP-ATXN3-Q28” value at MBP-ATXN3-Q28 [10] is on record as “did not bind”. Besides, in [11], the “wild-type ATXN3 protein level” value is “no decrease in wild-type ATXN3 protein level was observed”. The same molecule had a concentration at 2 h in the data set “in vivo” of 9.48 ng/g. Besides, on MBP-ATXN3-Q68, the “binding to MBP-ATXN3-Q68” value is recorded as “binded”.
